Assay results from patent US11998556B2, “Methods of treating parkinson's disease and/or lewy body disease or disorder(s)” (Athira Pharma, Inc., priority 2021, dated 2024).
Square brackets hold non-standard residues; d marks the D form. Peptide text beside a SMILES is read from it. * marks the point of attachment. pY = N[CH](Cc1ccc(OP(=O)(O)O)cc1)C(=O)O; Hexanoyl = CCCCCC(=O)*; Ahx = NCCCCCC(=O)O

What was measured:
[1] = Phase 2 randomized, double-blind, placebo-controlled study in subjects with PDD inclusive of probable DLB; format: in vivo, human; conditions: 40 mg/day or 70 mg/day SC OD, 26 weeks
Method: The study is conducted at a total of approximately 15 centers in the USA and optionally Canada. Subjects and their caregivers are required to sign an informed consent form (ICF) and are evaluated against the inclusion/exclusion criteria during a screening period; all eligible subjects will have the option to be tested for glucocerebrosidase (GBA) genotype. Subjects who meet all inclusion/exclusion criteria will undergo baseline ERP P300 assessments at 2 separate baseline visits. At the first baseline assessment (Visit 2a, Pre-baseline, Day-10 to Day-3), ERP P300 is uploaded for quality check immediately after completion of the visit. […] At this Baseline visit (Visit 2b), subjects undergo pre-dose baseline and post-dose ERP P300. […] The first SC injection of study drug is performed on site under supervision. The subject should withhold study drug administration on the day of subsequent clinic visits; study drug administration is done on site under supervision of site staff at these visits. […] During the double-blind treatment period, clinic visits take place on Day 1 and thereafter at Weeks 2, 6, 12, 16, 20, and 26, with a safety follow-up visit scheduled 4 weeks after completion of the double-blind period at Week 30. On Day 1, after completion of the first dose, subjects remain on-site 2 hours for post-treatment clinical observation. […]

[2] = Nonclinical studies (hepatotoxicity risk); format: in vivo
[3] = Conversion of prodrug ATH-1017 to active drug ATH-1001 in the plasma after SC injection; format: in vivo
Text: ATH-1017 is an experimental treatment for Lewy body disease or disorder(s) (LBD), including Parkinson's disease dementia (PDD) and/or dementia with Lewy bodies (DLB), formulated as a sterile solution for subcutaneous (SC) injection. […] ATH-1017 was developed as a water-soluble prodrug of ATH-1001 to allow SC dosing in aqueous vehicles. The active drug ATH-1001 acts as an agonist of the hepatocyte growth factor (HGF) receptor and its tyrosine kinase, MET in the brain. The HGF/MET system presents a new therapeutic target to treat neurodegeneration and restore cognitive, behavioral, functional and motor capacities in LBD such as PDD.

[4] = Clinical studies of ATH-1017: safety and tolerability of single and multiple SC administration; format: in vivo, human

CCCCCC(=O)NC(Cc1ccc(OP(=O)(O)O)cc1)C(=O)NC(C(=O)NCCCCCC(N)=O)C(C)CC (stereo not shown) [ATH-1017] (Hexanoyl-[pY]-Ile-[Ahx]-NH2; configuration not given here)
safety and tolerability [1]: acceptable safety and tolerability | primary, secondary or exploratory endpoints (GST, ADAS-Cog13, ERP P300 latency etc.) ([1]; versus placebo): achieves one or more of the primary, secondary, or exploratory endpoints | hepatotoxicity risk [2]: potential risk for hepatotoxicity identified | conversion of prodrug to active drug ATH-1001 [3]: rapidly converted | safety and tolerability ([4]; 40 mg SC, OD, over 9 consecutive days, AD subjects): safe and well tolerated | injection site reactions (pain, pruritus, erythema): severity ([4]; SC injection, human clinical studies, resolved without specific therapy): mild in nature | hepatotoxicity ([4]; human studies): has not been observed | CNS-specific adverse events ([4]; humans, to date): no CNS-specific adverse events have been observed | safety and tolerability ([4]; multiple administration of 20, 40, 60 and 80 mg SC, OD, over 9 consecutive days, healthy elderly subjects): safe and well tolerated | safety and tolerability ([4]; single SC administration of 2, 6, 20, 40, 60 and 90 mg, healthy young subjects): safe and well tolerated
